≈ marks a conversion by molar mass, not a printed value. Structures can show the parent of a compound that is named as a salt.

The test system of experiment [1] is Mycobacterium tuberculosis. Briefly: Antimycobacterial activity against Mycobacterium tuberculosis H37Rv assessed as growth inhibition after 45 days by Canetti proportional method. The class given is functional. The note with it: for MIC: Mycobacterium tuberculosis, H37Rv.
The test system of experiment [2] is Mycobacterium tuberculosis. As to the kind of experiment: Antimycobacterial activity against Mycobacterium tuberculosis. It is filed as functional.

Turning to `CC[C@@H](CO)NCCN[C@@H](CC)CO` [ETHAMBUTOL HYDROCHLORIDE], the minimum inhibitory concentration (MIC) in experiment [1] came out at 7.22 µM.
In the case of `CC1(C)[C@@H]2CC[C@@]1(C)[C@H](O)[C@@H]2NC(=O)CCc1ccccc1`, in experiment [1], the “-logMIC” value worked out at 6.481 and the MIC turned out to be 0.33 µM (≈ 0.0995 µg/mL).
Take `CC1(C)[C@@H]2CC[C@@]1(C)[C@H](O)[C@@H]2NC(=O)c1cccnc1`: in experiment [1], the “-logMIC” value is reported as 6.444 and the MIC was determined as 0.36 µM (≈ 0.0988 µg/mL).
As to `CC(C)[C@H](O)C(=O)N[C@@H]1[C@H]2CC[C@@](C)([C@@H]1O)C2(C)C`, in experiment [1], the “-logMIC” value was 6.131 and the MIC stood at 0.74 µM (≈ 0.199 µg/mL).
For the molecule `CC1(C)[C@@H]2CC[C@@]1(C)[C@H](O)[C@@H]2NC(=O)/C=C/c1ccccc1`, in experiment [1], the “-logMIC” value turned out to be 6.481 and the minimum inhibitory concentration (MIC) stood at 0.33 µM (≈ 0.0988 µg/mL).
For `CC1(C)[C@@H]2CC[C@@]1(C)[C@H](O)[C@@H]2NC(=O)[C@@H](O)c1ccccc1` the same measures were 4.783 and 16.5 µM (≈ 5.01 µg/mL).
As to `CC1(C)[C@@H]2CC[C@@]1(C)[C@H](O)[C@@H]2NP(=O)(c1ccccc1)c1ccccc1`, in experiment [1], the “-logMIC” value was 4.868 and the MIC was 13.6 µM (≈ 5.01 µg/mL).
In experiment [2], `CC[C@@H](CO)NCCN[C@@H](CC)CO` [ETHAMBUTOL] came in with an MIC of 10 µM (≈ 2.04 µg/mL).
Regarding `CC1(C)[C@@H]2CC[C@@]1(C)[C@H](O)[C@@H]2NC(=O)[C@@H](O)Cc1ccccc1`, in experiment [1], the “-logMIC” value is 5.201 and the MIC stood at 6.3 µM (≈ 2 µg/mL).
Turning to `CC(=O)Oc1ccccc1C(=O)N[C@@H]1[C@H]2CC[C@@](C)([C@@H]1O)C2(C)C`, in experiment [1], the “-logMIC” value turned out to be 6.523 and the MIC was 0.3 µM (≈ 0.0994 µg/mL).
In the same order, the values of `CC[C@H](C)[C@H](O)C(=O)N[C@@H]1[C@H]2CC[C@@](C)([C@@H]1O)C2(C)C` are 5.151 and 7.06 µM (≈ 2 µg/mL).
Turning to `CSCC[C@H](O)C(=O)N[C@@H]1[C@H]2CC[C@@](C)([C@@H]1O)C2(C)C`, in experiment [1], the “-logMIC” value amounted to 6.18 and the MIC is 0.66 µM (≈ 0.199 µg/mL).
On to `CC1(C)[C@@H]2CC[C@@]1(C)[C@H](O)[C@@H]2NC(=O)c1ccco1`, for which, in experiment [1], the “-logMIC” value stood at 6.42 and the MIC came out at 0.38 µM (≈ 0.1 µg/mL).
Consider `CCNC(=O)N[C@@H]1[C@H]2CC[C@@](C)([C@@H]1O)C2(C)C`, for which, in experiment [1], the “-logMIC” value came out at 6.387 and the MIC was determined as 0.41 µM (≈ 0.0985 µg/mL).

In general, MIC refers to the lowest concentration that inhibits growth of the organism.
